Legend:
Human δ-opioid (DOP) = molecular target: T1, Human δ-opioid (DOP) (Homo sapiens, UniProt P41143); assay: Radioligand binding, human δ-opioid (DOP) membranes, FlashPlate, [3H]-Bremazocine; conditions: compound at 10 μM; [3H]-Bremazocine
T1 construct: purchased Perkin Elmer Biosignal
How it was run: (§1)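 Cloned human receptor membranes were coated onto FlashPlate wells and incubated with radioligand and compound (added from a 0.5 mM DMSO daughter plate) for 1 hour at room temperature in the dark. Scintillation counting gave percent inhibition, with DMSO defining total and reference ligand defining non-specific binding.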

Human κ-Opioid (KOP) = molecular target: T2, Human κ-Opioid (KOP) (Homo sapiens, UniProt P41145); assay: Radioligand binding, human κ-opioid (KOP) membranes, filtration, [3H]-Diprenorphine; conditions: compound at 10 μM; [3H]-Diprenorphine
T2 construct: purchased Perkin Elmer Biosignal
T2 sequence (P41145 whole entry): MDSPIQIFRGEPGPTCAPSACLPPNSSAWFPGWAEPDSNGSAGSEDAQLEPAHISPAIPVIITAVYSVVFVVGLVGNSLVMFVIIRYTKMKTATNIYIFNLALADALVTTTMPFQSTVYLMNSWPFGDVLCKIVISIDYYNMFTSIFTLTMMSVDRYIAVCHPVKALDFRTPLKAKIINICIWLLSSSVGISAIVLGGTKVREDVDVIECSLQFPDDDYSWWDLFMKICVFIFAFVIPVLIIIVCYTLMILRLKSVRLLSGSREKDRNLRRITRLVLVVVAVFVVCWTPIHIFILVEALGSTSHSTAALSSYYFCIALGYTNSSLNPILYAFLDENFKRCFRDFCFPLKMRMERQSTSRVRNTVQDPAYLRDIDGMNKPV
How it was run: (§2)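 Membranes from cloned human receptors were incubated with compound and radioligand for 1 hour at room temperature. Bound ligand was collected on 0.3% PEI-soaked filters, washed with cold 50 mM Tris-HCl pH 7.4, and counted by scintillation. Percent inhibition was computed against DMSO totals and reference-ligand nonspecific wells.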

Human Melanocortin (MC3) = molecular target: T3, Human Melanocortin (MC3) (Homo sapiens, UniProt P41968); assay: Radioligand binding, human melanocortin MC3 membranes, FlashPlate, [125I]-NDP-αMSH; conditions: compound at 10 μM; [125I]-NDP-αMSH
T3 construct: purchased Perkin Elmer Biosignal
T3 sequence (P41968 whole entry): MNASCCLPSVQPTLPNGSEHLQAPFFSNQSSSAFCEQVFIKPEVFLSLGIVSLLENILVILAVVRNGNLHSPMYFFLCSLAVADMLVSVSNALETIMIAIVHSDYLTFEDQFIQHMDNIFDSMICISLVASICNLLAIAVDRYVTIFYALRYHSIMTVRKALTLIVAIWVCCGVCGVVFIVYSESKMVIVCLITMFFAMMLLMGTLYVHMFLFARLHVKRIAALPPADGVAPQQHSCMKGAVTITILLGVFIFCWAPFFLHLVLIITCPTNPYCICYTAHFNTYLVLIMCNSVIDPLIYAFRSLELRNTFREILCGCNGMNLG
How it was run: as §1

Human Melanocortin (MC4) = molecular target: T4, Human Melanocortin (MC4) (Homo sapiens, UniProt P32245); assay: Radioligand binding, human melanocortin MC4 membranes, FlashPlate, [125I]-NDP-αMSH; conditions: compound at 10 μM; [125I]-NDP-αMSH
T4 construct: purchased Perkin Elmer Biosignal
T4 sequence (P32245 whole entry): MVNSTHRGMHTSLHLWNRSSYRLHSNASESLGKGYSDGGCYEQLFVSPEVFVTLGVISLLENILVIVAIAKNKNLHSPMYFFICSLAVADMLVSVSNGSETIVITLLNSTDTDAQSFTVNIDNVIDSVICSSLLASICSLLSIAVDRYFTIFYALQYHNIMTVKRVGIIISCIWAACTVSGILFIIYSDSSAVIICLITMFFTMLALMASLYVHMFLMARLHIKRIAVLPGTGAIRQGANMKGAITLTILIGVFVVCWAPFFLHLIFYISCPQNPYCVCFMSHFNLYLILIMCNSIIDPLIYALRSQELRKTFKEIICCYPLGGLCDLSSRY
How it was run: as §1

Human melanocortin (MC5) = molecular target: T5, Human melanocortin (MC5) (Homo sapiens, UniProt P33032); assay: Radioligand binding, human melanocortin MC5 membranes, FlashPlate, [125I]-NDP-αMSH; conditions: compound at 10 μM; [125I]-NDP-αMSH
T5 construct: purchased Perkin Elmer Biosignal
T5 sequence (P33032 whole entry): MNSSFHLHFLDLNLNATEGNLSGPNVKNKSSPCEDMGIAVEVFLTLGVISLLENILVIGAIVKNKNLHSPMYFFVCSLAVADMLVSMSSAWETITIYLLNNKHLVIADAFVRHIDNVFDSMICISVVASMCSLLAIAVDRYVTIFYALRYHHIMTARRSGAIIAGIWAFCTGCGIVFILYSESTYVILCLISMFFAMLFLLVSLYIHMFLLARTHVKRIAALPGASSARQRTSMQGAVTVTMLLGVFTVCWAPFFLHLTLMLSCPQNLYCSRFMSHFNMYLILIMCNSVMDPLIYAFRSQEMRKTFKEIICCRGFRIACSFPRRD
How it was run: as §1

[1] = molecular target: T6, Human melanin-concentrating hormone (MCH1) (Homo sapiens, UniProt Q99705); assay: Radioligand binding, human melanin-concentrating hormone MCH1 membranes, FlashPlate, [125I]-S36057; conditions: compound at 10 μM; [125I]-S36057
T6 construct: purchased Perkin Elmer Biosignal
T6 sequence (Q99705 whole entry): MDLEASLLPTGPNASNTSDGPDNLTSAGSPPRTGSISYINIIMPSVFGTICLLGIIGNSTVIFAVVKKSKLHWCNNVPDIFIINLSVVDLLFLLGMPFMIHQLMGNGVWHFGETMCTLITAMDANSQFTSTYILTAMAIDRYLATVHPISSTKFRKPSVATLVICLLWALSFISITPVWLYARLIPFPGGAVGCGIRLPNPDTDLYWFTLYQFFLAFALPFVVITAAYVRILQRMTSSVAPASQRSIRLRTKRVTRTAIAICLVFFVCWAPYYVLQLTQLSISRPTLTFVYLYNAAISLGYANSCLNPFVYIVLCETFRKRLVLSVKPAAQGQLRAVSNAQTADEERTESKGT
How it was run: as §1

Human μ-opioid (MOP) = molecular target: T7, Human μ-opioid (MOP) (Homo sapiens, UniProt P35372); assay: Radioligand binding, human μ-opioid (MOP) membranes, FlashPlate, [3H]-Naloxone; conditions: compound at 10 μM; [3H]-Naloxone
T7 construct: purchased Perkin Elmer Biosignal
T7 sequence (P35372 whole entry): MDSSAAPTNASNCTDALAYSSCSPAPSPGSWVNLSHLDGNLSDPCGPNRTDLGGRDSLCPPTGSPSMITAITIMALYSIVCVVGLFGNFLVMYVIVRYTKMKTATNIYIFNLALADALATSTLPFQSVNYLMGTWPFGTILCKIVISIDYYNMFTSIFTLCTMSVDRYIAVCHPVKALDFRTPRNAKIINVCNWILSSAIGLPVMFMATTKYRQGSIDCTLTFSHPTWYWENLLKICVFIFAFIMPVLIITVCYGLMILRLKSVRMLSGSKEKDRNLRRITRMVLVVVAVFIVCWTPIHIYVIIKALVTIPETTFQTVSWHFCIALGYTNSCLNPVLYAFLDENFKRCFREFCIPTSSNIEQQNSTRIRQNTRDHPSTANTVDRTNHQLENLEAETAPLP
How it was run: as §1

Human neurokinin (NK1) = molecular target: T8, Human neurokinin (NK1) (Homo sapiens, UniProt P25103); assay: Radioligand binding, human neurokinin NK1 membranes, filtration, [125I]-Substance P; conditions: compound at 10 μM; [125I]-Substance P
T8 construct: purchased Perkin Elmer Biosignal
T8 sequence (P25103 whole entry): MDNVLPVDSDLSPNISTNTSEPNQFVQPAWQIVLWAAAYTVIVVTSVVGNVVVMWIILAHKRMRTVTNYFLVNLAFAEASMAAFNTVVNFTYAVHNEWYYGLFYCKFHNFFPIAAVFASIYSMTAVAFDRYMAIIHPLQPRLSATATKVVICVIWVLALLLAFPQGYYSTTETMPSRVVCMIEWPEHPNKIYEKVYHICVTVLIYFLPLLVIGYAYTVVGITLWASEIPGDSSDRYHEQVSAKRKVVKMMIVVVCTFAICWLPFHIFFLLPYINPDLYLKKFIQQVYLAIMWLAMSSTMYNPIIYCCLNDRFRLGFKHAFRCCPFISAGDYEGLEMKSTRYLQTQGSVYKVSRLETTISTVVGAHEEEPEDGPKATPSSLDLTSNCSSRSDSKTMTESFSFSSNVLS
How it was run: as §2

[2] = molecular target: T9, Human neuropeptide Y (NPY-Y1) (Homo sapiens, UniProt P25929); assay: Radioligand binding, human neuropeptide Y NPY-Y1 membranes, FlashPlate, [125I]-PYY; conditions: compound at 10 μM; [125I]-PYY
T9 construct: purchased Perkin Elmer Biosignal
T9 sequence (P25929 1-384): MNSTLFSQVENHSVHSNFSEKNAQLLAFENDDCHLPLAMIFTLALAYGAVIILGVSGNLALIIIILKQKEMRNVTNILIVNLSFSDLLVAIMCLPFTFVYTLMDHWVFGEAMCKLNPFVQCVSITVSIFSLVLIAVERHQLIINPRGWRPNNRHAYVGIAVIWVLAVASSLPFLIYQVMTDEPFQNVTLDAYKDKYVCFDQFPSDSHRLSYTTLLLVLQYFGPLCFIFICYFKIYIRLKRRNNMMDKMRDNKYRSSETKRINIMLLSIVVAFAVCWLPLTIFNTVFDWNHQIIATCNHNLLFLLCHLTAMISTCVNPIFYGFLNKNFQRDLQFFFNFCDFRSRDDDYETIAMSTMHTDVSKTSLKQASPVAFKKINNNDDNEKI
How it was run: as §1

Human opioid (ORL1) = molecular target: T10, Human opioid (ORL1) (Homo sapiens, UniProt P41146); assay: Radioligand binding, human opioid ORL1 membranes, FlashPlate, [125I]-Nociceptin; conditions: compound at 10 μM; [125I]-Nociceptin
T10 construct: purchased Perkin Elmer Biosignal
T10 sequence (P41146 whole entry): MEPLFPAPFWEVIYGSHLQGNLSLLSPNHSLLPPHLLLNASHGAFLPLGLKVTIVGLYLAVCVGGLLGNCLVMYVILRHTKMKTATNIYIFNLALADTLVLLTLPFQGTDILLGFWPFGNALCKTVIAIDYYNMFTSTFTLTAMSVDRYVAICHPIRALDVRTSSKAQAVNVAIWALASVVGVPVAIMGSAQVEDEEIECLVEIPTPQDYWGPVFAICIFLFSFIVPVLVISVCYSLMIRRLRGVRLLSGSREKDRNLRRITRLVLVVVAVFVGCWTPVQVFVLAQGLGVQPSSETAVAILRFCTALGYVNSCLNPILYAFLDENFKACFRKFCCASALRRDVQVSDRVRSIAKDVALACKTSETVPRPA
How it was run: as §1

Mouse urotensin (mUR2) = molecular target: T11, Mouse urotensin (mUR2) (Mus musculus, UniProt Q8VIH9); assay: Radioligand binding, mouse urotensin mUR2 membranes, FlashPlate, [125I]-Urotensin II; conditions: compound at 10 μM; [125I]-Urotensin II
T11 construct: purchased Perkin Elmer Biosignal
T11 sequence (Q8VIH9 1-385): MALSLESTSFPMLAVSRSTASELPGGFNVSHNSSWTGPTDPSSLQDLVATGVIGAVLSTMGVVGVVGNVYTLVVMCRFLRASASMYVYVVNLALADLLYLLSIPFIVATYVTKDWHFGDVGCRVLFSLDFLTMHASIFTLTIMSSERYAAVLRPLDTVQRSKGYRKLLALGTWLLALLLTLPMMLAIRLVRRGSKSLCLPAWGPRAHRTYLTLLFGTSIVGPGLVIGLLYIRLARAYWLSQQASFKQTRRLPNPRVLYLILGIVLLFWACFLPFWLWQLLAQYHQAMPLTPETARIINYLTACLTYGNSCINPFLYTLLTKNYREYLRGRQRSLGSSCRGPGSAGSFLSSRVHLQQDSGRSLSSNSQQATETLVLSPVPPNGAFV
How it was run: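 Cloned mouse urotensin (mUR2) receptor membranes from Perkin Elmer Biosignal were immobilized in FlashPlate microplates using a proprietary coating. Each well got 19.5 μl buffer, then 0.5 μl of DMSO, reference ligand, or compound. Adding 5 μl of [125I]-Urotensin II, diluted to 5× final concentration in binding buffer, started binding. Plates were sealed with TopSeal-A and incubated 1 hour at room temperature in the dark. Wells were counted for 30 seconds each on a TopCount after a 60-second delay, and percentage inhibition was calculated.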

T1 sequence (P41143 whole entry): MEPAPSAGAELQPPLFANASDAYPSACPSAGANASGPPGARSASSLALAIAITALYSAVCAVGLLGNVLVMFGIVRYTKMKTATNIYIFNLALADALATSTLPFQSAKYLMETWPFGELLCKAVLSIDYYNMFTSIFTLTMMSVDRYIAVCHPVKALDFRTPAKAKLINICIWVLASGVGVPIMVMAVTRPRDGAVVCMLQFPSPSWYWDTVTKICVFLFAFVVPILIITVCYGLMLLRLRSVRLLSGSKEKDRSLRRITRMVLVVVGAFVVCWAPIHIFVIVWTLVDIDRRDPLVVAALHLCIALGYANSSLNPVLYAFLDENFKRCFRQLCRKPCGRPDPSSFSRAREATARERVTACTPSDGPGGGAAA

Q: How did the “A1: inhibition of radioligand binding, human δ-opioid (DOP)” value (Human δ-opioid (DOP)) turn out when `N=C(N)NCC(=O)N[C@H]1C(OCc2ccc(Cl)cc2)O[C@H](COCc2ccc(Cl)cc2)[C@@H](O)[C@@H]1OCc1ccc(Cl)cc1` (stereo partly shown) [compound 511] was run?
A: − (“−” indicates less than 50% inhibition at 10 μM)

Q: And the “A2: inhibition of radioligand binding, human κ-opioid (KOP)” value (Human κ-Opioid (KOP))?
A: − (“−” indicates less than 50% inhibition at 10 μM)

Q: What about the “A3: inhibition of radioligand binding, human melanocortin (MC3)” value (Human Melanocortin (MC3)) of the same molecule?
A: + (“+” indicates greater than 50% inhibition at 10 μM)

Q: What about the “A4: inhibition of radioligand binding, human melanocortin (MC4)” value (Human Melanocortin (MC4)) of the same molecule?
A: + (“+” indicates greater than 50% inhibition at 10 μM)

Q: What about the “A5: inhibition of radioligand binding, human melanocortin (MC5)” value (Human melanocortin (MC5)) of the same molecule?
A: + (“+” indicates greater than 50% inhibition at 10 μM)

Q: And the “A6: inhibition of radioligand binding, human melanin-concentrating hormone (MCH1)” value [1]?
A: + (“+” indicates greater than 50% inhibition at 10 μM)

Q: And the “A7: inhibition of radioligand binding, human μ-opioid (MOP)” value (Human μ-opioid (MOP))?
A: + (“+” indicates greater than 50% inhibition at 10 μM)

Q: What about the “A8: inhibition of radioligand binding, human neurokinin (NK1)” value (Human neurokinin (NK1)) of the same molecule?
A: + (“+” indicates greater than 50% inhibition at 10 μM)

Q: What about the “A9: inhibition of radioligand binding, human neuropeptide Y (NPY-Y1)” value [2] of the same molecule?
A: − (“−” indicates less than 50% inhibition at 10 μM)

Q: What about the “A10: inhibition of radioligand binding, human opioid (ORL1)” value (Human opioid (ORL1)) of the same molecule?
A: + (“+” indicates greater than 50% inhibition at 10 μM)

Q: And the “A11: inhibition of radioligand binding, mouse urotensin (mUR2)” value (Mouse urotensin (mUR2))?
A: − (“−” indicates less than 50% inhibition at 10 μM)

Q: How did the “A1: inhibition of radioligand binding, human δ-opioid (DOP)” value (Human δ-opioid (DOP)) turn out when `NCCCC(=O)NC1C(OCc2ccccc2)OC(COCc2ccc3ccccc3c2)C(O)C1OCc1ccc(Cl)cc1` (stereo not shown) [compound 372] was run?
A: − (“−” indicates less than 50% inhibition at 10 μM)

Q: What about the “A2: inhibition of radioligand binding, human κ-opioid (KOP)” value (Human κ-Opioid (KOP)) of the same molecule?
A: − (“−” indicates less than 50% inhibition at 10 μM)

Q: And the “A3: inhibition of radioligand binding, human melanocortin (MC3)” value (Human Melanocortin (MC3))?
A: − (“−” indicates less than 50% inhibition at 10 μM)

Q: And the “A4: inhibition of radioligand binding, human melanocortin (MC4)” value (Human Melanocortin (MC4))?
A: + (“+” indicates greater than 50% inhibition at 10 μM)

Q: And the “A5: inhibition of radioligand binding, human melanocortin (MC5)” value (Human melanocortin (MC5))?
A: + (“+” indicates greater than 50% inhibition at 10 μM)

Q: And the “A6: inhibition of radioligand binding, human melanin-concentrating hormone (MCH1)” value [1]?
A: − (“−” indicates less than 50% inhibition at 10 μM)

Q: What about the “A7: inhibition of radioligand binding, human μ-opioid (MOP)” value (Human μ-opioid (MOP)) of the same molecule?
A: − (“−” indicates less than 50% inhibition at 10 μM)

Q: And the “A8: inhibition of radioligand binding, human neurokinin (NK1)” value (Human neurokinin (NK1))?
A: + (“+” indicates greater than 50% inhibition at 10 μM)

Q: And the “A9: inhibition of radioligand binding, human neuropeptide Y (NPY-Y1)” value [2]?
A: − (“−” indicates less than 50% inhibition at 10 μM)

Q: What about the “A10: inhibition of radioligand binding, human opioid (ORL1)” value (Human opioid (ORL1)) of the same molecule?
A: − (“−” indicates less than 50% inhibition at 10 μM)

Q: What about the “A11: inhibition of radioligand binding, mouse urotensin (mUR2)” value (Mouse urotensin (mUR2)) of the same molecule?
A: − (“−” indicates less than 50% inhibition at 10 μM)

— patent US20080009418A1, “Selective Inhibitors” (Alchemia LTD., priority 2004, published 2008)
